Data as given in ChEMBL document CHEMBL1137884, “Synthesis of ether analogues derived from HUN-7293 and evaluation as inhibitors of VCAM-1 expression” (Bioorg Med Chem Lett, 2004).
Numbered stars: 1 amine (or outer) side, 2 acyl side, 3 side chain; on linkers, the order of the positions; unused ones are H or OH. Square brackets hold non-standard residues; d marks the D form. Peptide text beside a SMILES is read from it. NMeTrp(1-OMe) = CN[C@@H](Cc1cn(OC)c2ccccc12)C(=O)O; Butanoyl(2R-oxy,4-CN) = N#CCC[C@@H](O)C(=O)O; X1 = CCCC[C@@H](C)C[C@H](N[*:1])C(=O)[*:2]; NMeL = CN[C@@H](CC(C)C)C(=O)O; NMeA = CN[C@@H](C)C(=O)O

Tests used:
[1] = system: HMEC; assay: inhibition of TNF-alpha-induced ICAM-1 expression in the human microvascular endothelial cell line HMEC-1; format: functional, cell-based
[2] = system: HMEC; assay: inhibition of TNF-alpha-induced VCAM-1 expression in the human microvascular endothelial cell line HMEC-1; format: functional, cell-based

Row | SMILES | IC50 [1] [nM] | IC50 [2] [nM]
1 | CCCC[C@@H](C)C[C@@H]1NC(=O)[C@H](Cc2cn(OC)c3ccccc23)N(C)C(=O)[C@H](CC(C)C)NC(=O)[C@H](CC(C)C)N(C)C(=O)[C@H](C[C@H](C)CCCC)NC(=O)[C@@H](C)OC[C@H](C)N(C)C1=O | 1660 | 15
2 | CCCC[C@@H](C)C[C@@H]1NC(=O)[C@H](Cc2cn(OC)c3ccccc23)N(C)C(=O)[C@H](CC(C)C)NC(=O)[C@H](CC(C)C)N(C)C(=O)[C@H](C[C@H](C)CCCC)NC(=O)[C@@H](CCC#N)OC(=O)[C@H](C)N(C)C1=O (cyclo(L[NMeTrp(1-OMe)][X1][NMeA][Butanoyl(2R-oxy,4-CN)][X1][NMeL])) | 25 | 
3 | CCCC[C@@H](C)C[C@H]1CN(C)[C@@H](C)C(=O)O[C@H](C)C(=O)N[C@@H](C[C@H](C)CCCC)C(=O)N(C)[C@@H](CC(C)C)C(=O)N[C@@H](CC(C)C)C(=O)N(C)[C@@H](Cc2cn(OC)c3ccccc23)C(=O)N1 | > 30000 | 18
4 | CCCC[C@@H](C)C[C@@H]1NC(=O)[C@H](Cc2cn(OC)c3ccccc23)N(C)C(=O)[C@H](CC(C)C)NC(=O)[C@H](CC(C)C)N(C)C(=O)[C@H](C[C@H](C)CCCC)NC(=O)[C@H](C)OC[C@H](C)N(C)C1=O | > 30000 | 630

The remaining lines, values ahead:

Row | IC50 [1] [nM] | IC50 [2] [nM] | SMILES
5 | 178 | 2 | CCCC[C@@H](C)C[C@@H]1NC(=O)[C@H](Cc2cn(OC)c3ccccc23)N(C)C(=O)[C@H](CC(C)C)NC(=O)[C@H](CC(C)C)N(C)C(=O)[C@H](C[C@H](C)CCCC)NC(=O)[C@@H](C)OC(=O)[C@H](C)N(C)C1=O
6 | 6920 | 92 | CCCC[C@@H](C)C[C@H]1CN(C)[C@@H](C)C(=O)N[C@H](C)C(=O)N[C@@H](C[C@H](C)CCCC)C(=O)N(C)[C@@H](CC(C)C)C(=O)N[C@@H](CC(C)C)C(=O)N(C)[C@@H](Cc2cn(OC)c3ccccc23)C(=O)N1
7 |  | 200 | CCCC[C@@H](C)C[C@@H]1NC(=O)[C@H](Cc2cn(OC)c3ccccc23)N(C)C(=O)[C@H](CC(C)C)NC(=O)[C@H](CC(C)C)N(C)C(=O)[C@H](C[C@H](C)CCCC)NC(=O)COC[C@H](C)N(C)C1=O
